According to patent US11357779B2 (G1 Therapeutics, Inc., priority 2018, dated 2022):
Where two headings read alike, the source gives them in different places. Each block holds one compound with its values, some of them ahead of it.

How the values were obtained:
ME-016 tumor = assay: Murine BRAFmut melanoma PDX model, tumor growth and survival; type: in vivo; settings: ME-016 tumor-containing mice; Compound I 100 mg/kg, dabrafenib 25 mg/kg, trametinib 1 mg/kg
Experimental: Mice containing a ME-016 tumor were treated with vehicle, Compound I (100 mg/kg), dabrafenib (25 mg/kg), trametinib (1 mg/kg), Compound I+dabrafenib, Compound I+trametinib, dabrafenib+trametinib, and Compound I+dabrafenib+trametinib.

[1] = Steady-state AUC0-24,ss, (AUC0-24,ss)/dose, half-life and time to steady state: Compound I versus palbociclib, ribociclib, abemaciclib; type: in vivo, human; settings: for (AUC0-24,ss)/Dose (mg): in h·ng/mL/mg; for Time to Steady State / Time to Steady-State: FDA labeled dose, five half-lives; for AUC(0-t): human, in vivo, read-out: Extrapolated AUC0-24,ss
Description: The time to reach steady state was defined as five half-lives (97% steady state achieved). […] The AUC data are presented as the arithmetic mean. […] The AUC data are presented as the geometric mean. The steady-state AUC0-24 for various BID doses of abemaciclib provided in Table 89 was obtained from the above cited prior published studies. The AUC data are presented as the geometric mean.

[2] = cited from earlier work; for AUC0-24,ss: geometric mean; for AUC0-10,ss: arithmetic mean
[3] = cited from earlier work
[4] = trial not given; cited from earlier work
[5] = abemaciclib, cited from earlier work
[6] = Grade 3/4 neutropenia and leukopenia; cited from earlier work
[7] = MONALEESA-2; cited from earlier work

Compound: CC(C)(C)c1nc(-c2cccc(NS(=O)(=O)c3c(F)cccc3F)c2F)c(-c2ccnc(N)n2)s1 [Dabrefinib]
Median OS (ME-016 tumor): 32 days

Compound: CC(=O)Nc1cccc(-n2c(=O)n(C3CC3)c(=O)c3c(Nc4ccc(I)cc4F)n(C)c(=O)c(C)c32)c1 [Trametinib]
Median OS (ME-016 tumor): 42.5 days

(AUC0-24,ss)/Dose (mg) ([1]; 75 mg BID): 17.33
(AUC0-24,ss)/Dose (mg) ([1]; 100 mg BID): 39.10
(AUC0-24,ss)/Dose (mg) ([1]; 150 mg BID): 28.53
(AUC0-24,ss)/Dose (mg) ([1]; 200 mg BID): 27.60
Compound: CCN1CCN(Cc2ccc(Nc3ncc(F)c(-c4cc(F)c5nc(C)n(C(C)C)c5c4)n3)nc2)CC1 [abemaciclib, 2-pyrimidinamine, N-[5-[(4-ethyl-1-piperazinyl)methyl]-2-pyridinyl]-5-fluoro-4-[4-fluoro-2-methyl-1-(1-methylethyl)-1H-benzimidazol-6-yl]-]
AUC0-24,ss ([2]; 75 mg BID): 1300 ng·h/mL
AUC0-24,ss ([2]; 100 mg BID): 3910 ng·h/mL
AUC0-24,ss ([2]; 150 mg BID): 4280 ng·h/mL
AUC0-24,ss ([2]; 200 mg BID): 5520 ng·h/mL
Diarrhea, patients ([3]; MONARCH 1, abemaciclib alone): 90%
Grade 3 diarrhea, patients ([3]; MONARCH 1, abemaciclib alone): 20%
Neutropenia, patients ([3]; MONARCH 1, abemaciclib alone): 37%
Grade >3 decrease in neutrophil count (based on laboratory findings), patients ([3]; MONARCH 1): 27%
patients with diarrhea required a dose reduction [4]: 22%
patients with diarrhea required dose omission [4]: 22%
estimated geometric mean accumulation ratio ([5]; based on AUC): 3.2 (59% CV)
estimated geometric mean accumulation ratio ([5]; based on Cmax): 2.3 (50% CV)
T1/2 ([5]; human): roughly 18.3 hours

Extrapolated AUC0-24,ss ([1]; 100 mg QD, AUC0-24=(AUC0-10)*2.49655): 1478 ng·h/mL
Time to Steady State ([1]; 125 mg QD): 5.5 days
Time to Steady-State ([1]; 125 mg QD): 132.5 h
AUC(0-t) ([1]; 25 mg QD, AUC0-24=(AUC0-10)*2.49655): 297 ng·h/mL
AUC(0-t) ([1]; 50 mg QD, AUC0-24=(AUC0-10)*2.49655): 684 ng·h/mL
AUC(0-t) ([1]; 75 mg QD, AUC0-24=(AUC0-10)*2.49655): 1230 ng·h/mL
AUC(0-t) ([1]; 125 mg QD, AUC0-24=(AUC0-10)*2.49655): 1810 ng·h/mL
AUC(0-t) ([1]; 150 mg QD, AUC0-24=(AUC0-10)*2.49655): 2710 ng·h/mL
Compound: CC(=O)c1c(C)c2cnc(Nc3ccc(N4CCNCC4)cn3)nc2n(C2CCCC2)c1=O [palbociclib, 6-acetyl-8-cyclopentyl-5-methyl-2-(5-piperazin-1-yl-pyridin-2-ylammino)-8H-pyrido-[2,3-d]-pyrimidin-7-one]
AUC0-10,ss ([2]; 25 mg QD): 119 ng·h/mL
AUC0-10,ss ([2]; 50 mg QD): 274 ng·h/mL
AUC0-10,ss ([2]; 75 mg QD): 492 ng·h/mL
AUC0-10,ss ([2]; 100 mg QD): 592 ng·h/mL
Mean Half-Life ([2]; 125 mg QD, FDA labeled dose): 26.5 h
AUC0-10,ss ([2]; 125 mg QD): 724 ng·h/mL
AUC0-10,ss ([2]; 150 mg QD): 1084 ng·h/mL
patients requiring a dose interruption [6]: 71%
patients requiring a dose reduction [6]: 35%

Time to Steady State ([1]; 600 mg QD): 6.8 days
Time to Steady-State ([1]; 600 mg QD): 162.5 h
Compound: CN(C)C(=O)c1cc2cnc(Nc3ccc(N4CCNCC4)cn3)nc2n1C1CCCC1 [ribociclib, 7-cyclopentyl-N,N-dimethyl-2-((5-(piperazin-1-yl)pyridin-2-yl)amino)-7H-pyrrolo[2,3-d]pyrimidine-6-carboxamide]
neutropenia, most frequently reported adverse reaction [7]: 75%
